Results on one molecule are retold here after patent US20150374718A1, “Zhankuic Acid A and Analogs thereof and Their Use as an Anti-Inflammatory Agent” (National Cheng Kung University, priority 2014, published 2015).

Each structure is given as a SMILES string.

Series [1] relates to LPS-induced TNF-α and IL-6 production. In words: Plasma cytokines in LPS-injected mice. The conditions noted are these: ZAA i.p. 30 min before LPS 4 mg/kg i.p., 6 h. In kind it is in vivo.
Series [2] has as its system NF-κB, MAPK, and Akt signaling pathways. In words: Immunoblot of NF-κB, MAPK and Akt signaling in LPS-stimulated RAW264.7 cells. Type of series: cell-based, murine. The conditions noted are these: ZAA 1 h, then LPS 30 min. The procedure:
(§1) FIG. 1. ZAA inhibits the production of inflammation-related molecules in LPS- and IFN-γ-stimulated murine macrophages. […] Total cell lysates were subjected to immunoblotting for detecting COX2 and iNOS. Relative expression levels of COX2 and iNOS protein were quantified by densitometric analysis with ImageJ software and normalized according to the β-actin reference band. […] The presence of nitrite in the culture medium was analyzed by the Griess assay and used as an indication of NO levels (n=4; *p<0.05 and ***p<0.001 vs. LPS- or IFN-γ-induced cells). (C) Raw264.7 cells were cotransfected with pNFKB-Luc and pβ-actin-LacZ plasmids. […] Total cell lysates were harvested, and their luciferase activities were determined and normalized on the basis of β-galactosidase activities. […] Numbers below the blots in D and those shown in the table below the blots in E represent the relative expression levels quantified by densitometric analysis with ImageJ software and normalized according to the β-actin reference bands. […]
Cell lysates were analyzed by immunoblotting with primary antibodies against pIKKα/β, IkBα, pNF-κBp65, pERK, ERK, pJNK, JNK, pAkt, Akt, pp38, p38, and β-actin, followed by appropriate secondary antibodies Immunoreactive protein bands were detected using an enhanced chemiluminescence (ECL) kit (Pierce Biotechnology, Rockford, Ill.). […]
Background: Immunoblotting shows a protein as a band on a membrane.

The test system of series [3] is LPS-induced TNF-α and IL-6 production. The series is described as follows: ELISA of cytokines in LPS-treated RAW264.7 cells. Type of series: cell-based, murine. The conditions noted are these: ZAA 1 h, LPS 0.25 or 0.5 μg/mL. (An ELISA detects its analyte on a solid surface through an enzyme-linked reagent.)
Series [4] deals with S. choleraesuis-induced TNF-α and IL-6 production. In words: Plasma cytokines in S. choleraesuis-infected mice. The conditions noted are these: C57BL/6 mice; ZAA 10 mg/kg, oral S. choleraesuis 2×10^9 CFU/mouse; 6 h. Type of series: in vivo.
Series [5] relates to LPS-induced lung and renal injury. In words: LPS-induced lung and renal injury in mice. The conditions noted are these: ZAA 20 mg/kg i.p., LPS 4 mg/kg i.p., 10 h.
Procedure: After 10 h, mice were sacrificed, and their lung and kidney tissues were removed. […] (B) The number of infiltrated PMNs in each alveolus was observed by light microscopy (original magnification ×200). The number of PMNs was counted in four randomly chosen fields per slide for each mouse and normalized to the number of alveoli. […] Values shown in B-D are means ±SD (n=10; **p<0.01 and ***p<0.001).
The lung and kidney were embedded in paraffin, sectioned, and stained with hematoxylin and eosin. Serum samples were collected for determination of blood urea nitrogen (BUN) and serum creatinine levels.
A further series has as its target T1, recombinant human MD-2 (Homo sapiens, UniProt Q9Y6Y9).
T1 construct: purchased R&D
T1 sequence (Q9Y6Y9 19-160): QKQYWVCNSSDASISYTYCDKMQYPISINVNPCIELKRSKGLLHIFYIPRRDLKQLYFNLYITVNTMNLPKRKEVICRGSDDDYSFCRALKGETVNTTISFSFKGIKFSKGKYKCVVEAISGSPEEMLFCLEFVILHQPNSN
In words: Native PAGE binding analysis with anti-MD-2 antibodies. The conditions noted are these: MD-2 0.15 μg, 3 h at 37° C. From the text: FIG. 2. ZAA interacts with the hydrophobic binding pocket of MD-2. […] The amino acids G1y110-Asn158 shown in magenta, which reside within the immunogenic peptide fragment of MD-2 amino acids 110-160, are around the ZAA-binding site in the ribbon model of MD-2. Gly110 and Asn158 are indicated by arrows. (B) Interactions involved in the binding of ZAA to the hydrophobic amino acid residues within the MD-2 binding pocket are shown. […] Similar results were obtained in three independent experiments.
Samples were subjected to native PAGE, and the levels of TLR4-associated or free MD-2 were detected by immunoblotting with two anti-MD-2 antibodies, rabbit polyclonal antibody against MD-2 amino acids 110-160 (abcam, Cambridge, Mass.) and mouse monoclonal antibody against MD-2 amino acids 2-160 (abcam). Signals were detected via ECL.

For series [6], the system named is murine peritoneal macrophages. The series is described as follows: Cell viability by MTS and SRB assays. Type of series: cell-based. The conditions noted are these: up to 30 μM for 72 h; resident or LPS-activated macrophages; listed as ZAA. The method, then:
FIG. 6. ZAA is not cytotoxic to murine peritoneal macrophages. (A) Cells were incubated with various concentrations of ZAA for 72 h. Cell viability was determined by colorimetric tetrazolium (MTS) and sulphorhodamine B (SRB) assays. The absorbance was measured at 490 and 590 nm for MTS and SRB assays, respectively. […] Cell viability was determined by the SRB assay.
We first investigated the anti-inflammatory properties of ZAA purified from T. camphoratus. During inflammation, large amounts of pro-inflammatory mediators, NO, and prostaglandin E2 (PGE2) are generated by iNOS and COX2.

In series [7] the test system is LPS-induced NO production. The conditions noted are these: reference (10); cited from earlier work.
The subject of series [8] is NF-κB-mediated transactivation in Raw264.7 cells. The series is described as follows: NF-κB luciferase reporter assay. The conditions noted are these: ZAA 1 h, then LPS 24 h. Type of series: cell-based, murine. The procedure:
as §1
Subconfluent Raw264.7 cells cultured in 24-well plates were cotransfected with p-NFκB-Luc and pβ-actin-LacZ plasmids using the Neon Transfection System (Invitrogen, Carlsbad, Calif.) according to the manufacturer's protocol. […] Relative luciferase activity was measured as luciferase activity divided by β-galactosidase activity to normalize transfection efficiency.
(In general: In a reporter assay the amount or activity of a reporter protein is the signal.)

The next series has as its system NO production. The series is described as follows: Griess assay of nitrite (NO) in macrophage culture medium. Type of series: cell-based, murine. The conditions noted are these: ZAA 1 h, dose-dependent. The method, then:
as §1, with “activities. Values are means±SD (n=4; *p<0.05 and **p<0.01 vs. LPS-stimulated cells).” for “activities.”
C57BL/6 mice were injected intraperitoneally with 3% thioglycollate, and their peritoneal macrophages were collected 72 h later. […] The presence of nitrite (a metabolite of NO) in the culture medium was analyzed by the Griess assay (Sigma-Aldrich), as previously described (16).

Where [9] appears, read: TLR4 signaling-defective C3H/HeJ mice.

Turning to `C=C(CC[C@@H](C)[C@H]1CC[C@H]2C3=C(C(=O)C[C@]12C)[C@@]1(C)CCC(=O)[C@@H](C)[C@@H]1CC3=O)C(C)C(=O)O` (some centres unmarked) [No. 1, Zhankuic acid A], in [1] (C3H/HeN mice), the “plasma IL-6 production” value is listed as “significantly reduced” and the “plasma TNF-α production” value is given as “significantly reduced”. Besides, in [1] (setting [9]), the “plasma IL-6 production” value is recorded as “a much weaker response” and the “plasma TNF-α production” value is given as “a much weaker response”. Moreover, in [2], the “LPS-induced phosphorylation of ERK, JNK, p38, and Akt” value is listed as “inhibited”; the “LPS-stimulated NF-κBp65 phosphorylation” value was “significantly prevented”. In [3] (supernatant after 4 h), the “LPS-induced TNF-α production” value is “inhibited”. Further, in [3] (supernatant after 6 h), the “LPS-induced IL-6 production” value is given as “inhibited”. For the same molecule, in [4], the “S. choleraesuis-induced IL-6 production” value was “effectively suppressed” and the “S. choleraesuis-induced TNF-α production” value is listed as “effectively suppressed”. In addition, in series [5] (C3H/HeN mice), the “LPS-induced pulmonary accumulation of PMNs” value was “significantly prevented” and the “extent of LPS-induced glomerulonephritis” value is “significantly reduced”. Besides, in series [5], the BUN level result is listed as “markedly reduced” and the serum creatinine level result was “markedly reduced”. Besides, the “recognition of anti-MD-2 antibodies (aa 110-160 and 2-160) to native MD-2” value at recombinant human MD-2 was “reduced the recognition of both antibodies to native MD-2”. For the same molecule, in [6], the “cytotoxic effects (MTS and SRB)” value is recorded as “did not exert any cytotoxic effects”. In addition, the “LPS-induced NO production” value in series [7] was “inhibiting”. For the same molecule, the “NF-κB-mediated transactivation (relative luciferase activity)” value in series [8] is reported as “inhibited”. In addition, in the series on NO production (then IFN-γ 50 ng/mL 24 h), the “IFN-γ-induced NO production” value is “inhibited”. Further, in the series with NO production (then LPS 0.5 μg/mL 24 h), the “LPS-induced NO production” value is given as “inhibited”.
